The values below come from patent US20100179143A1, “NAPHTHYRIDINE, DERIVATIVES AS P13 KINASE INHIBITORS” (Smithkline Beecham Corporation, priority 2007, published 2010).

For one assay, the system named is Class I PI3-kinases. Particulars: cited from earlier work.
The target of a further assay is CK2 protein kinase. The following applies: read-out: inhibition of CK2 protein kinase; cited from earlier work.
Assay [1] concerns neutrophils. Particulars: cited from earlier work.
Another assay has as its target T1, PI3Kα (Homo sapiens, UniProt P42336).
T1 construct: His
Briefly: PI3K alpha Leadseeker SPA Assay. The class given is biochemical. The following applies: in at least one experimental run; read-out: IC50 against PI3Kα. As to the method:
PI3K alpha Leadseeker SPA Assay
Compounds of the present invention were tested according to the following assays and found as inhibitors of PI3 kinases, particularly PI3Kα. The exemplified compounds were tested and found active against PI3Kα. The IC50's ranged from about 1 nM to 10 μM.
SPA imaging beads are microspheres containing scintillant which emit light in the red region of the visible spectrum. As a result, these beads are ideally suited to use with a CCD imager such as the Viewlux. The Leadseeker beads used in this system are polystyrene beads that have been coupled with polyethyleneimine. When added to the assay mixture, the beads absorb both the substrate (PIP2) and product (PIP3). Adsorbed P^33-PIP3 will cause an increase in signal, measured as ADUs (analog to digital units). This protocol details the use of the PEI-PS Leadseeker beads for assays using His-p110/p85 PI3K alpha.
Solid compounds are typically plated with 0.1 μl of 100% DMSO in all wells (except column 6 and 18) of a 384-well, flat bottom, low volume plate (Greiner 784075). The compounds are serially diluted (3-fold in 100% DMSO) across the plate from column 1 to column 12 and column 13 to column 24 and leave column 6 and 18 containing only DMSO to yield 11 concentrations for each test compound.
The assay buffer contains MOPS (pH 6.5), CHAPS, and DTT. PI3K alpha and PIP2 (L-alpha-D-myo-Phosphatidylinositol 4,5-bisphosphate [P1(4,5)P2]3-O-phospho linked, D(+)-sn-1,2-di-O-octanoylglyceryl, CellSignals #901) are mixed and incubated in the plate with compound for 30 min prior to starting the reaction with the addition of P^33-ATP and MgCl2 (reagents added using Zoom). Enzyme-free wells (column 18) are typically done to determine the low control. PEI-PS Leadseeker beads in PBS/EDTA/CHAPS are added (by Multidrop) to quench the reaction, and the plates are allowed to incubate for at least one hour (typically overnight) before centrifugation. The signal is determined using a Viewlux detector and is then imported into curve fitting software (Activity Base) for construction of concentration response curves. The percent inhibition of activity was calculated relative to high controls (C1, 0.1 μl DMSO in column 6, rows A-P)) and low controls (C2, 5 μl of 40 uM PIP2 in buffer in column 18, rows A-P) using, 100*(1−(U1−C2)/(C1-C2)). The concentration of test compound yielding 50% inhibition was determined using the equation, y=((Vmax*x)/(K+x))+Y2, where “K” was equal to the IC50. The IC50 values were converted to pIC50 values, i.e., −log IC50 in Molar concentration.

Assay [2] concerns neutrophils. The following applies: treatment of neutrophils; Thelen et al. 1994; cited from earlier work.

Where two headings read alike, the source gives them in different places.

T1 sequence (P42336 whole entry): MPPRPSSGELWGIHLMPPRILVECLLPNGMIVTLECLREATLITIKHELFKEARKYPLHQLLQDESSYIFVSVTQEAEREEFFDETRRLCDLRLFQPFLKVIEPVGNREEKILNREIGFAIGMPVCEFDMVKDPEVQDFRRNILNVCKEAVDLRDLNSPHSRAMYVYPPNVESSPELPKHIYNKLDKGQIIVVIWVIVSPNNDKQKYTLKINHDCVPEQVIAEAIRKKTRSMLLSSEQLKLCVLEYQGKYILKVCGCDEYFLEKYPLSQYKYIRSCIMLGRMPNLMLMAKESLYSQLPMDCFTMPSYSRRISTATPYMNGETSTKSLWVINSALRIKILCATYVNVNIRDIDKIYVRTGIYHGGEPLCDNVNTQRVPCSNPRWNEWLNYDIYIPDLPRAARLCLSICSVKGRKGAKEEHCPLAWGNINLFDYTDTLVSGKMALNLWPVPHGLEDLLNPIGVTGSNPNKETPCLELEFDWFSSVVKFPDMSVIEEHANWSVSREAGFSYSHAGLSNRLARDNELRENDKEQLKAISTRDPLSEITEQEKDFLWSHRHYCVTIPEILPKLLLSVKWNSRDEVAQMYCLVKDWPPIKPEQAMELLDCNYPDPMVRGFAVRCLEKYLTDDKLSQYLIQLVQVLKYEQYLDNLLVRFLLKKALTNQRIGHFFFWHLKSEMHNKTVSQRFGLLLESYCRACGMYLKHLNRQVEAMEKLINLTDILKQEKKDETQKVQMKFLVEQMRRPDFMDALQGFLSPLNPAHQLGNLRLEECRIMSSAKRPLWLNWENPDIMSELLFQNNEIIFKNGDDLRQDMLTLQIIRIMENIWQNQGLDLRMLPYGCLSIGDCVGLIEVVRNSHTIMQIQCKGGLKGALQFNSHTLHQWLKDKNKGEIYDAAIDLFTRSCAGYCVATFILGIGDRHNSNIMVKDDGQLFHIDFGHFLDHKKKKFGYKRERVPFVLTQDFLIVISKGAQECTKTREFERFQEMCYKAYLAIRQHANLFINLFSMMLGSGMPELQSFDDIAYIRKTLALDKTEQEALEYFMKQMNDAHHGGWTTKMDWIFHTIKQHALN
T1 sequence (P27986 whole entry partner): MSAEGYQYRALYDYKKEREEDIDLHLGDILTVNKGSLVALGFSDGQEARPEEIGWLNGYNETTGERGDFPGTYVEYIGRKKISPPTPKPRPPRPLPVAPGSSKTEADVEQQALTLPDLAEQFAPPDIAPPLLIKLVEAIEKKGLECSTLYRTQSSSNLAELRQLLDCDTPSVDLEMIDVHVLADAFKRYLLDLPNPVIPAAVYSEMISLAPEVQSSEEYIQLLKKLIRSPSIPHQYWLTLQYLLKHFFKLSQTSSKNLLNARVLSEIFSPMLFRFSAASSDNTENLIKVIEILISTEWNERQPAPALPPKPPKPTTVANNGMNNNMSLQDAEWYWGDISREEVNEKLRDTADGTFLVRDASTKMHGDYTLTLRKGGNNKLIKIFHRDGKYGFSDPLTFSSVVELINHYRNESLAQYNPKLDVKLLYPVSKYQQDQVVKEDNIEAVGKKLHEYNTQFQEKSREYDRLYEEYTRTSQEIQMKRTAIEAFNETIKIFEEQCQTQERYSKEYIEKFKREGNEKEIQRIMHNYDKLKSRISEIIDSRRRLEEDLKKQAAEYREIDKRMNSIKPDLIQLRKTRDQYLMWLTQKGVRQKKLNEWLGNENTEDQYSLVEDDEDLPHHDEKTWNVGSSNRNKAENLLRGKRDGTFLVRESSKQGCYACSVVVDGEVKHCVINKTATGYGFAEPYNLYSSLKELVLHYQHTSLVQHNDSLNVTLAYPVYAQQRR

`O=c1cc(N2CCOCC2)oc2c(-c3ccccc3)cccc12` [LY294002]: the IC50 in the assay with Class I PI3-kinases (Fruman et al. 1998, read-out: IC50 against each of these PI3-kinases) was 15000 to 20000 nM. The IC50 on CK2 protein kinase was 5000 to 10000 nM. Further, in the assay on neutrophils [1], the neutrophil migration entry is recorded as “block” and the superoxide release result was “block”.

Consider `CS(=O)(=O)Nc1ccc(-c2ccnc3ccc(-c4cncc(S(N)(=O)=O)c4)nc23)cc1` [Example 11, 5-(8-{4-[(methylsulfonyl)amino]phenyl}-1,5-naphthyridin-2-yl)-3-pyridinesulfonamide], for which the IC50 on PI3Kα stood at 6 nM.

As to `OCc1ccc(-c2ccc3nccc(-c4ccncc4)c3n2)o1` [Example 1, {5-[8-(4-pyridinyl)-1,5-naphthyridin-2-yl]-2-furanyl}methanol], at PI3Kα, the IC50 turned out to be 40 nM.

As to `CN(C)S(=O)(=O)c1cc(-c2ccc3nccc(-c4ccncc4)c3n2)cnc1N` [Example 2, 2-amino-N,N-dimethyl-5-[8-(4-pyridinyl)-1,5-naphthyridin-2-yl]-3-pyridinesulfonamide], the IC50 at PI3Kα is 3 nM.

As for `NS(=O)(=O)c1cncc(-c2ccc3nccc(-c4cccc(OC(F)(F)F)c4)c3n2)c1` [Example 9, 5-(8-{3-[(trifluoromethyl)oxy]phenyl}-1,5-naphthyridin-2-yl)-3-pyridinesulfonamide], the IC50 at PI3Kα turned out to be 27 nM.

On to `c1ccc(-c2n[nH]cc2-c2ccc3nccc(-c4ccncc4)c3n2)cc1` [Example 5, 2-(3-phenyl-1H-pyrazol-4-yl)-8-(4-pyridinyl)-1,5-naphthyridine], for which, on PI3Kα, the IC50 came out at 31 nM.

As to `COC[C@H]1OC(=O)c2coc3c2[C@@]1(C)C1=C(C3=O)[C@@H]2CCC(=O)[C@@]2(C)C[C@H]1OC(C)=O` [wortmannin], the IC50 in the assay on Class I PI3-kinases (wortmannin, read-out: IC50 against each of the various Class I PI3-kinases) was 1 to 10 nM. Besides, the “fMLP-induced respiratory burst response” value in the assay with neutrophils [2] was “prevents the fMLP-induced respiratory burst response”. For the same compound, in the assay on neutrophils [1], the neutrophil migration entry was “block” and the superoxide release result was “block”.

In the case of `CN1CCN(c2ccnc3ccc(-c4cncc(S(=O)(=O)Nc5ccc(F)cc5F)c4)nc23)CC1` [Example 32, N-(2,4-difluorophenyl)-5-[8-(4-methyl-1-piperazinyl)-1,5-naphthyridin-2-yl]-3-pyridinesulfonamide], the IC50 at PI3Kα is 50 nM.
